We go through four molecules from US20230357271A1, “MACROCYCLIC COMPOUND” (Asahi Kasei Pharma Corporation, priority 2020, published 2023).

Like-named read-outs stand apart in the source and are kept apart here.

The conditions of data set [1]: 14-membered ring.

With `CC(C)(C)OC(=O)N1CC[C@H]2C[C@H]1C(=O)NCC(F)COc1c(OCc3ccccc3)ccc3ncc(cc13)N2` (stereo partly drawn), the ring closure, isolated yield in data set [1] (from CC(C)(C)OC(=O)N1CC[C@H](Nc2cnc3ccc(OCc4ccccc4)c(O)c3c2)C[C@H]1C(=O)NCC(F)CO, ether bond, PPh3/DTBAD, toluene, 4.84 mM, 25.0 °C, 1.0 h) is 67%. Besides, for the setting “from CC(C)(C)OC(=O)N1CC[C@H](Nc2cnc3ccc(OCc4ccccc4)c(O)c3c2)C[C@H]1C(=O)NCC(F)CO, ether bond, PPh3 / di-tert-butyl azodicarboxylate, toluene, 4.76 mM, 25.0 °C, 1.0 h”, the ring closure, yield of all isomers stood at 67%.

As for `CC(C)(C)OC(=O)N1CC[C@H]2C[C@H]1C(=O)NCCCOc1c(Br)ccc3ncc(nc13)N2`, the ring closure, isolated yield in data set [1] (from CC(C)(C)OC(=O)N1CC[C@H](Nc2cnc3ccc(Br)c(O)c3n2)C[C@H]1C(=O)NCCCO, ether bond, PPh3/DTBAD, THF, 5.0 mM, 25.0 °C, 2.0 h) worked out at 70%; in data set [1] (from CC(C)(C)OC(=O)N1CC[C@H](Nc2cnc3ccc(Br)c(O)c3n2)C[C@H]1C(=O)NCCCO, ether bond, PPh3/DTBAD, THF, 5.0 mM, 25.0 °C, 12.0 h) it was 61%. In addition, the ring closure, yield of all isomers (from CC(C)(C)OC(=O)N1CC[C@H](Nc2cnc3ccc(Br)c(O)c3n2)C[C@H]1C(=O)NCCCO, ether bond, PPh3 / di-tert-butyl azodicarboxylate, tetrahydrofuran, 4.91 mM, 25.0 °C, 12.0 h) is 61% and the ring closure, yield of all isomers (from CC(C)(C)OC(=O)N1CC[C@H](Nc2cnc3ccc(Br)c(O)c3n2)C[C@H]1C(=O)NCCCO, ether bond, PPh3 / di-tert-butyl azodicarboxylate, tetrahydrofuran, 4.92 mM, 25.0 °C, 2.0 h) was 70%.

`CC(C)(C)OC(=O)N1CC[C@H]2C[C@H]1C(=O)NCCCOc1c(OCc3ccccc3)ccc3ncc(cc13)O2` had a ring closure, isolated yield in data set [1] (from CC(C)(C)OC(=O)N1CC[C@@H](O)C[C@H]1C(=O)NCCCOc1c(OCc2ccccc2)ccc2ncc(O)cc12, ether bond, PPh3/DTBAD, toluene, 11.0 mM, 1.5 h) of 72%.

With `CC(C)(C)OC(=O)N1CC[C@H]2C[C@H]1C(=O)OCCCOc1c(OCc3ccccc3)ccc3ncc(cc13)N2`, in data set [1] (from CC(C)(C)OC(=O)N1CC[C@H](N)C[C@H]1C(=O)OCCCOc1c(OCc2ccccc2)ccc2ncc(Br)cc12, cn_pd bond, tBuXPhos Pd G3/Cs2CO3, 1,4-dioxane, 98.8 mM, 120.0 °C, 72.0 h), the ring closure, isolated yield worked out at 7%. Under “from CC(C)(C)OC(=O)N1CC[C@H](N)C[C@H]1C(=O)OCCCOc1c(OCc2ccccc2)ccc2ncc(Br)cc12, cn_pd bond, tBuXPhos Pd G3 / Cs2CO3, 1,4-dioxane, 98.8 mM, 120.0 °C, 72.0 h”, this molecule returned a ring closure, yield of all isomers of 7%.
